Results published in patent US20220306617A1, “SUBSTITUTED 1,3-PHENYL HETEROARYL DERIVATIVES AND THEIR USE IN THE TREATMENT OF DISEASE” (NOVARTIS AG, priority 2019, published 2022).
Where a name gives a salt, the structure may show the parent alone.

Target: T1, abc isoform of human TMEM16A channel expressed in CHO cells (Homo sapiens, UniProt Q5XXA6, DEL476-501)
T1 construct: expressed in transfected cells; host or cells: CHO cells, doxycycline-inducible expression under Blasticidin/Zeocin selection
T1 sequence (Q5XXA6 with tags, fused parts or gaps isoform Q5XXA6-5 DEL539-564): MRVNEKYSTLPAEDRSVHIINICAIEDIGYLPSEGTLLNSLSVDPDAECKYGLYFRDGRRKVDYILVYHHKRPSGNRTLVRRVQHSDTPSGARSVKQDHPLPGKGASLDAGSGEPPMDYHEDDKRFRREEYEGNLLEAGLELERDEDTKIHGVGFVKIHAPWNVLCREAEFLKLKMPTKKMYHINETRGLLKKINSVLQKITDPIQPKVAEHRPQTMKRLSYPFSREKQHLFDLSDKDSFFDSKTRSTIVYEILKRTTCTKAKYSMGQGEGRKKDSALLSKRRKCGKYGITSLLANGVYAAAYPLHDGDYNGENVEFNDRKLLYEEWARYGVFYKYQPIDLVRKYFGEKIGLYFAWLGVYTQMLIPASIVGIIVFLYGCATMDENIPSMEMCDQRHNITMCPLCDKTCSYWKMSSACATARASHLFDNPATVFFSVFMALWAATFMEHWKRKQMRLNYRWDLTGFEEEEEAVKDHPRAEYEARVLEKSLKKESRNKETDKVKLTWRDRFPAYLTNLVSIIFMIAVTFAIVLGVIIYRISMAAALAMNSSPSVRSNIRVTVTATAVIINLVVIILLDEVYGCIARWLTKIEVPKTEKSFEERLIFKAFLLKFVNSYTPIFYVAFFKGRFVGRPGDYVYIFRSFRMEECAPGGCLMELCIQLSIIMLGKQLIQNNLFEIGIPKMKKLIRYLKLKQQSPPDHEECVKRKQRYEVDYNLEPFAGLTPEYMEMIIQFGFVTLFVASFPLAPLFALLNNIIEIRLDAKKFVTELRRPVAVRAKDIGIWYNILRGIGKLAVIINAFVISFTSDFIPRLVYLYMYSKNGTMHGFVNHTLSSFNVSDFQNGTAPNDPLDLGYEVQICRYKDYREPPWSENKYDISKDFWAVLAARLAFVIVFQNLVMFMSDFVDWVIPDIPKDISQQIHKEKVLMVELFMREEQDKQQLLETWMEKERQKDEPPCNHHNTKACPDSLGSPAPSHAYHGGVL
Test: Automated patch clamping (QPatch) assay to measure TMEM16A activity in whole-cell
Assay type: cell-based
Conditions: for EC50: CHO cells expressing human TMEM16A (abc), whole-cell automated patch clamp, Hill fit, read-out: TMEM16A QPATCH assay EC50 V3 EC50; for Emax: CHO, read-out: TMEM16A QPATCH assay EC50 V3 Assay Window (% TMEM16A max activation)
In short: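 CHO cells with doxycycline-induced (1 μg/mL, 18-24 h) human TMEM16A abc isoform; QPatch whole-cell recording, hold −70 mV, step +70 mV 1500 ms, then −90 to +70 mV ramp. Compounds in 0.3% DMSO; EC50 by Hill fit; % max activation relative to vehicle baseline and reference potentiator maximum.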

[1] = maximum current at highest dose relative to reference potentiator at maximal concentration (upper limit) and vehicle (lower limit)

Structure (SMILES) | EC50 [µM] | Emax [1] [%] | TMEM16A QPATCH assay EC50 V3 Assay Window (% TMEM16A max activation) [1] [%]
CCC(CC)NC(=O)c1cnc(-c2cccc(-c3cc(C(=O)NCc4ccc(C5(C(F)(F)F)N=N5)cc4)n[nH]3)c2)o1 [Example 3.19, N-(Pentan-3-Yl)-2-(3-(3-((4-(3-(Trifluoromethyl)-3H-Diazirin-3-Yl)Benzyl)Carbamoyl)-1 H-Pyrazol-5-Yl)Phenyl)Oxazole-5-Carboxamide] | 0.27 | 69 | 
CCC(CC)NC(=O)c1cnc(-c2cccc(-c3cc(C(=O)NCC4(N5CCOCC5)CCCCC4)n[nH]3)c2)o1 [Example 3.67, 2-(3-(3-(((1-Morpholinocyclohexyl)Methyl)Carbamoyl)-1H-Pyrazol-5-Yl)Phenyl)-N-(Pentan-3-Yl)Oxazole-5-Carboxamide Trifluoroacetate] | 0.79 | 68 | 
CCOC(=O)[C@H](CC1CCCCC1)NC(=O)c1cc(-c2cccc(-c3ncc(C(=O)NC(CC)CC)o3)c2)[nH]n1 [Example 3.17, (S)-Ethyl 3-Cyclohexyl-2-(5-(3-(5-(Pentan-3-Ylcarbamoyl)Oxazol-2-Yl)Phenyl)-1 H-Pyrazole-3-Carboxamido)Propanoate] | 0.17 | 66 | 
COC(=O)[C@@H](NC(=O)c1cnc(-c2cccc(-c3nnc(C(=O)NC(C4CC4)C4CC4)[nH]3)c2)o1)C(C)C [Example 12.9, (S)-Methyl 2-(2-(3-(5-((Dicyclopropylmethyl)Carbamoyl)-4H-1,2,4-Triazol-3-Yl)Phenyl)Oxazole-5-Carboxamido)-3-Methylbutanoate] | 0.02 | 134 | 
CCC(CC)NC(=O)c1cnc(-c2cccc(-c3cc(C(=O)N4CCC(C)(OC)CC4)n[nH]3)c2)o1 [Example 3.47, 2-(3-(3-(4-Methoxy-4-Methylpiperidine-1-Carbonyl)-1H-Pyrazol-5-yl)Phenyl)-N-(Pentan-3-Yl)Oxazole-5-Carboxamide] | 0.94 | 77 | 
CCC(CC)NC(=O)c1cnc(-c2cccc(-c3nc(C(=O)NC(CC)CC)n(CCOC)n3)c2)o1 [Example 15.1, 2-(3-(1-(2-Methoxyethyl)-5-(Pentan-3-Ylcarbamoyl)-1H-1,2,4-Triazol-3-Yl)Phenyl)-N-(Pentan-3-Yl)Oxazole-5-Carboxamide] | 0.24 | 155 | 
CC(C)[C@H](NC(=O)c1cnc(-c2cccc(-c3nnc(C(=O)N[C@@H](C)C4CC4)[nH]3)c2)o1)C(=O)OC(C)(C)C [Example 12.4, (S)-Tert-Butyl 2-(2-(3-(5-(((S)-1-Cyclopropylethyl)Carbamoyl)-4H-1,2,4-Triazol-3-Yl)Phenyl)Oxazole-5-Carboxamido)-3-Methylbutanoate] | 0.07 | 119 | 
COC(=O)[C@H](CC(C)C)NC(=O)c1cc(-c2cccc(-c3ncc(C(=O)N[C@@H](CC(C)C)C(=O)OC)o3)c2)[nH]n1 [Example 3.58, (S)-Methyl 2-(2-(3-(3-(((S)-1-Methoxy-4-Methyl-1-Oxopentan-2-Yl)Carbamoyl)-1H-Pyrazol-5-Yl)Phenyl)Oxazole-5-Carboxamido)-4-Methylpentanoate] | 0.27 | 77 | 
CCC(CC)NC(=O)c1cc(-c2cccc(-c3ncc(C(=O)N[C@@H](C)CC)o3)c2)[nH]n1 [Example 1.45, (S)-N-(Sec-Butyl)-2-(3-(3-(Pentan-3-Ylcarbamoyl)-1H-Pyrazol-5-Yl)Phenyl)Oxazole-5-Carboxamide] | 0.71 | 75 | 
CCC(CC)NC(=O)c1cc(-c2cccc(-c3ncc(C(=O)NC(C)(C)C(=O)OC(C)(C)C)o3)c2)[nH]n1 [Example 3.69, Tert-Butyl 2-Methyl-2-(2-(3-(3-(Pentan-3-Ylcarbamoyl)-1H-Pyrazol-5-Yl)Phenyl)Oxazole-5-Carboxamido)Propanoatehexafluorophosphatepropanoate Hexafluorophosphate] | 0.26 | 76 | 
C[C@H](NC(=O)c1cc(-c2cccc(-c3ncc(C(=O)N[C@@H](C)C4CC4)o3)c2)[nH]n1)C1CC1 [Example 2.5, N-((S)-1-Cyclopropylethyl)-2-(3-(3-(((S)-1-Cyclopropylethyl)Carbamoyl)-1H-Pyrazol-5-Yl)Phenyl)Oxazole-5-Carboxamide] | 0.01 | 32 | 
COC(=O)[C@@H](NC(=O)c1cnc(-c2cccc(-c3cc(C(=O)NC(C4CC4)C4CC4)n(CC(O)C(F)(F)F)n3)c2)o1)C(C)C (stereo partly drawn) [Example 6.1, (2S)-Methyl 2-(2-(3-(5-((Dicyclopropylmethyl)Carbamoyl)-1-(3,3,3-Trifluoro-2-Hydroxypropyl)-1H-Pyrazol-3-Yl)Phenyl)Oxazole-5-Carboxamido)-3-Methylbutanoate] | 0.12 | 220 | 
CCC(CC)NC(=O)c1cc(-c2cccc(-c3ncc(C(=O)N[C@H](C(=O)OC)c4ccccc4)o3)c2)[nH]n1 [Example 1.15, (S)-Methyl 2-(2-(3-(3-(Pentan-3-Ylcarbamoyl)-1H-Pyrazol-5-yl)Phenyl)Oxazole-5-Carboxamido)-2-Phenylacetate] | 0.41 | 100 | 
CCOC(=O)[C@@H](NC(=O)c1cnc(-c2cccc(-c3cc(C(=O)N[C@@H](C)C4CC4)n(CCO)n3)c2)o1)C(C)C [Example 4.2, (S)-Ethyl 2-(2-(3-(5-(((S)-1-Cyclopropylethyl)Carbamoyl)-1-(2-Hydroxyethyl)-1H-Pyrazol-3-Yl)Phenyl)Oxazole-5-Carboxamido)-3-Methylbutanoate] | 0.68 | 125 | 
CCC(CC)NC(=O)c1cnc(-c2cccc(-c3cc(C(=O)N[C@H](C)c4ccccc4)n[nH]3)c2)o1 [Example 3.51, (R)-N-(Pentan-3-Yl)-2-(3-(3-((1-Phenylethyl)Carbamoyl)-1H-Pyrazol-5-Yl)Phenyl)Oxazole-5-Carboxamide] | 0.11 | 68 | 
CCC(CC)NC(=O)c1cc(-c2cccc(-c3ncc(C(=O)N[C@@H](CC(C)C)C(=O)NCC(=O)OC(C)(C)C)o3)c2)[nH]n1 [Example 1.16, (S)-Tert-Butyl 2-(4-Methyl-2-(2-(3-(3-(Pentan-3-Ylcarbamoyl)-1 H-Pyrazol-5-yl)Phenyl)Oxazole-5-Carboxamido)Pentanamido)Acetate] | 0.83 | 100 | 
CCC(CC)NC(=O)c1cnc(-c2cccc(-c3cc(C(=O)NCc4c(F)cccc4F)n[nH]3)c2)o1 [Example 3.34, 2-(3-(3-((2,6-Difluorobenzyl)Carbamoyl)-1 H-Pyrazol-5-Yl)Phenyl)-N-(Pentan-3-Yl)Oxazole-5-Carboxamide] | 0.22 | 77 | 
COC(=O)[C@@H](CSC)NC(=O)c1cnc(-c2cccc(-c3cc(C(=O)N[C@@H](C)C4CC4)n[nH]3)c2)o1 [Example 1.25, (S)-Methyl 2-(2-(3-(3-(((S)-1-Cyclopropylethyl)Carbamoyl)-1H-Pyrazol-5-yl)Phenyl)Oxazole-5-Carboxamido)-3-(Methylthio)Propanoate] | 0.26 | 83 | 
CCC(CC)NC(=O)c1cnc(-c2cccc(-c3cc(C(=O)NC4CCCC4)n[nH]3)c2)o1 [Example 3.48, 2-(3-(3-(Cyclopentylcarbamoyl)-1 H-Pyrazol-5-Yl)Phenyl)-N-(Pentan-3-yl)Oxazole-5-Carboxamide] | 0.12 | 74 | 
CCC(CC)NC(=O)c1cnc(-c2cccc(-c3nnc(C(=O)N[C@@H](C)C4CC4)[nH]3)c2)o1 [Example 14.0, (S)-2-(3-(5-((1-Cyclopropylethyl)Carbamoyl)-4H-1,2,4-Triazol-3-Yl)Phenyl)-N-(Pentan-3-Yl)Oxazole-5-Carboxamide] | 0.58 | 177 | 
CCC(CC)NC(=O)c1cnc(-c2cccc(-c3cc(C(=O)Nc4cccc(OC(C)C)c4)n[nH]3)c2)o1 [Example 3.21, 2-(3-(3-((3-Isopropoxyphenyl)Carbamoyl)-1H-Pyrazol-5-Yl)Phenyl)-N-(Pentan-3-Yl)Oxazole-5-Carboxamide] | 0.19 | 74 | 
CCOC(=O)[C@@H](NC(=O)c1cnc(-c2cccc(-c3cc(C(=O)NC(C4CC4)C(F)(F)F)[nH]n3)c2)o1)C(C)C (single isomer, unassigned) [Example 2.3 (ii)] | 0.08 |  | 97
